According to article PMC4918903 (Journal of natural products, 2008):
Values after ≈ are worked out from the molar mass of the structure shown. “Also recorded” adds a separate entry of the source.

Columns and labels:
[1] = system: P. berghei (sensitive strain); experiment: In vivo antimalarial activity in rodent malaria model; conditions: oral; for cure: mice without parasitemia up to day 28 post-infection; for toxicity in vivo (in words): 30 mg/kg/day x 3 doses
Cryptococcus neoformans = experiment: In vitro antifungal activity; type: cell-based; conditions: for IC50: Cryptococcus neoformans, read-out: C. neoformans IC50
Candida albicans = experiment: In vitro antifungal activity; type: cell-based
[2] = system: Mycobacterium intracellulare; experiment: In vitro antibacterial activity; type: cell-based
[3] = system: Leishmania donovani promastigotes; experiment: Antileishmanial activity, Almar Blue assay; type: cell-based; conditions: for IC50: read-out: L. donovani IC50
P. bergei-infected mice = conditions: single intraperitoneal and oral administration; cited from earlier work
P. falciparum (D6 clone) = experiment: In vitro antimalarial activity, chloroquine-sensitive D6 clone; type: cell-based; conditions: Plasmodium falciparum, D6, read-out: P. falciparum (D6 clone) IC50
P. falciparum (W2 clone) = experiment: In vitro antimalarial activity, chloroquine-resistant W2 clone; type: cell-based; conditions: Plasmodium falciparum, W2, read-out: P. falciparum (W2 clone) IC50
Stability in solvents = type: physicochemical
[4] = system: Vero cell line (monkey kidney fibroblast cells); experiment: Cytotoxicity to mammalian Vero cells; type: cell-based; conditions: highest tested concentration 4700 ng/mL
[5] = system: methicillin-resistant S. aureus (MRSA); experiment: In vitro antibacterial activity; type: cell-based
KB carcinoma cell line = conditions: replacement of hydroxyl with methoxy at 8-position; cited from earlier work
LoVo = conditions: versus 8-hydroxy parent; cited from earlier work
HSV-II = conditions: cited from earlier work

## O[C@]12C=C(c3nccc4c3[nH]c3ccccc34)[C@@H]3CCN(CCCC/C=C\CC1)C[C@@]31C[C@@H]3/C=C\CCCCN3[C@H]12 [Compound 1, manzamine A]
[1]; 10 mg/kg x 3 days
  cure: 1/4
[1]
  toxicity in vivo (in words): shows toxicity
Cryptococcus neoformans
  IC50: 3 µg/mL (≈ 5.47 µM)
Candida albicans; Candida albicans, read-out: C. albicans IC50
  IC50: 2 µg/mL (≈ 3.64 µM)
[2]; Mycobacterium intracellulare, read-out: M. intracellulare IC50
  IC50: 0.35 µg/mL (≈ 0.638 µM)
[3]
  IC50: 0.9 µg/mL (≈ 1.64 µM)
P. bergei-infected mice
  prolonged survival of infected mice: more than 10 days
P. falciparum (D6 clone)
  IC50: 0.0042 µg/mL (≈ 0.00765 µM)

## Oc1cccc2c1[nH]c1c(C3=C[C@@]4(O)CC/C=C\CCCCN5CC[C@@H]3[C@]3(C[C@@H]6/C=C\CCCCN6[C@H]34)C5)nccc12 [Compound 2, 8-hydroxymanzamine A]
[1]; 10 mg/kg x 3 days
  cure: 0/4
[1]; 30 mg/kg x 3 days
  cure: 0/4
P. falciparum (W2 clone)
  IC50: 0.008 µg/mL (≈ 0.0142 µM)
Cryptococcus neoformans
  IC50: 3 µg/mL (≈ 5.31 µM)
Candida albicans; Candida albicans, read-out: C. albicans MIC
  MIC: 20 µg/mL (≈ 35.4 µM)
[3]
  IC50: 6.2 µg/mL (≈ 11 µM)
P. bergei-infected mice
  prolonged survival of infected mice: more than 10 days
P. falciparum (D6 clone)
  IC50: 0.006 µg/mL (≈ 0.0106 µM)

## Oc1cccc2c1[nH]c1c(C3=C[C@@]4(O)CC/C=C\CCCCN5CC[C@@H]3[C@]3(CC6/C=C\CCCCN6[C@H]34)C5)nccc12 (stereo partly drawn) [Compound 2, 8-hydroxymanzamine A]
[1]
  toxicity in vivo (in words): not toxic

## CC(=O)Oc1cccc2c1[nH]c1c(C3=C[C@@]4(O)CC/C=C\CCCCN5CC[C@@H]3[C@]3(C[C@@H]6/C=C\CCCCN6[C@H]34)C5)nccc12 [Compound 3, 8-acetoxymanzamine A]
[1]; 10 mg/kg x 3 days
  cure: 0/4
[1]; 30 mg/kg x 3 days
  cure: 0/3
[1]
  toxicity in vivo (in words): higher toxicity; also recorded: toxic
Stability in solvents; DMSO and IPA
  hydrolysis in DMSO and IPA (in words): negligible
Stability in solvents; MeCN and DMSO
  formation of hydroxyl moiety 2 in MeCN and DMSO (in words): no detectable trace
Stability in solvents; MeOH, 15 h, LC-MS
  hydrolysis to 2 in MeOH: 98%
[4]
  toxicity to Vero cell line (in words): exhibited toxicity

## CC(=O)Oc1cccc2c1[nH]c1c(C3=C[C@@]4(OC(C)=O)CC/C=C\CCCCN5CC[C@@H]3[C@]3(C[C@@H]6/C=C\CCCCN6[C@H]34)C5)nccc12 [Compound 4, 8,12-diacetoxymanzamine A]
Stability in solvents; CDCl3 and CD2Cl2, 24 h, 1H NMR
  stability in CDCl3 and CD2Cl2 (in words): decomposition
Stability in solvents; benzene, a few days of 1H NMR acquisition
  stability in benzene (in words): no changes were observed
Stability in solvents; several tested solvents with the exception of benzene
  stability in several tested solvents (in words): unstable and easily degraded
[4]
  toxicity to Vero cell line (in words): did not show cytotoxicity
Cryptococcus neoformans
  activity against C. neoformans (in words): inactive
Candida albicans
  activity against C. albicans (in words): inactive
[2]
  activity against M. intracellulare (in words): moderate activity
[5]
  activity against MRSA (in words): moderate activity

## COc1cccc2c1[nH]c1c(C3=C[C@@]4(O)CC/C=C\CCCCN5CC[C@@H]3[C@]3(C[C@@H]6/C=C\CCCCN6[C@H]34)C5)nccc12 [Compound 5, 8-methoxymanzamine A]
Stability in solvents; different solvents, two months, LC-MS
  stability in different solvents (in words): no expected hydrolysis to compound 2 was observed
[4]
  toxicity to Vero cell line (in words): exhibited toxicity
KB carcinoma cell line
  toxicity in KB carcinoma cell line versus 8-hydroxy parent (in words): reduced the toxicity
LoVo
  cytotoxicity against LoVo (in words): cytotoxity increased
HSV-II
  activity against HSV-II (in words): no activity

## CCN(CC)CCCC(C)Nc1ccnc2cc(Cl)ccc12 (stereo not drawn) [chloroquine, reference compound]
[1]; 50 mg/kg x 3 days, vehicle 0.1 N HCl, day 7 post-infection
  % suppression in parasitemia (% activity) day 7: 100%
[1]; 50 mg/kg x 3 days, vehicle 0.1 N HCl, day 10 post-infection
  % suppression in parasitemia (% activity) day 10: 100%
[1]; 50 mg/kg x 3 days, vehicle 0.1 N HCl, day 14 post-infection
  % suppression in parasitemia (% activity) day 14: 100%
[1]; 50 mg/kg x 3 days
  cure: 3/4
P. falciparum (W2 clone)
  IC50: 0.155 µg/mL (≈ 0.485 µM)
P. falciparum (D6 clone)
  IC50: 0.014 µg/mL (≈ 0.0438 µM)

## N=C(N)c1ccc(OCCCCCOc2ccc(C(=N)N)cc2)cc1 [pentamidine, reference compound]
[3]
  IC50: 2.6 µg/mL (≈ 7.64 µM)
[3]; read-out: L. donovani IC90
  IC90: 6.9 µg/mL (≈ 20.3 µM)
